Here are results for nine molecules from US20260317324A1, “BIFUNCTIONAL COMPOUNDS FOR DEGRADING BRAF VIA UBIQUITIN PROTEOSOME PATHWAY” (Nurix Therapeutics, Inc., priority 2023, published 2026).

What is called DC50 is the midpoint of the concentration-degradation curve. Lower therefore signals a more potent degrader. As usually defined, the Dmax is the greatest extent of degradation seen. The low end stands for shallow degradation, the high end for deep degradation.

Common to all, as to format: cell-based
Test [1] has as its target T1, BRAF V600E (Homo sapiens, UniProt P15056, V600E).
T1 construct: endogenous C-terminal HiBiT fusion tag on BRAF V600E allele; endogenous in cells; host or cells: A375 clone 1F10 (CRISPR-Cas9 knock-in of the HiBiT tag; parental A375 from ATCC)
Briefly: BRAF HiBiT degradation assay, C-terminal HiBiT-tagged BRAF V600E A375 cells (clone 1F10), Nano-Glo HiBiT Lytic assay. Particulars: for Dmax: A-375. Put shortly: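 Luminescence from the Nano-Glo HiBiT lytic read-out gave % BRAF V600E remaining versus DMSO-treated tagged cells, with untagged A375 as background. Clone 1F10 cells (10,000/well, 24 h pre-culture) received compound at 1 μM–0.01 nM in half-log steps, 0.2% DMSO; curve fits gave DC50 at Y=50, plus observed Dmax.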
(In general: The HiBiT peptide binds its large partner to form an active luciferase.)

In test [2] the target is T2, BRAF G466V (Homo sapiens, UniProt P15056, G466V).
T2 construct: Horizon Discovery (HCT-116 BRAF−/− cells); host or cells: HCT-116 BRAF−/− cells, clone 8, lentiviral transduction
T2 sequence (P15056 whole entry G466V): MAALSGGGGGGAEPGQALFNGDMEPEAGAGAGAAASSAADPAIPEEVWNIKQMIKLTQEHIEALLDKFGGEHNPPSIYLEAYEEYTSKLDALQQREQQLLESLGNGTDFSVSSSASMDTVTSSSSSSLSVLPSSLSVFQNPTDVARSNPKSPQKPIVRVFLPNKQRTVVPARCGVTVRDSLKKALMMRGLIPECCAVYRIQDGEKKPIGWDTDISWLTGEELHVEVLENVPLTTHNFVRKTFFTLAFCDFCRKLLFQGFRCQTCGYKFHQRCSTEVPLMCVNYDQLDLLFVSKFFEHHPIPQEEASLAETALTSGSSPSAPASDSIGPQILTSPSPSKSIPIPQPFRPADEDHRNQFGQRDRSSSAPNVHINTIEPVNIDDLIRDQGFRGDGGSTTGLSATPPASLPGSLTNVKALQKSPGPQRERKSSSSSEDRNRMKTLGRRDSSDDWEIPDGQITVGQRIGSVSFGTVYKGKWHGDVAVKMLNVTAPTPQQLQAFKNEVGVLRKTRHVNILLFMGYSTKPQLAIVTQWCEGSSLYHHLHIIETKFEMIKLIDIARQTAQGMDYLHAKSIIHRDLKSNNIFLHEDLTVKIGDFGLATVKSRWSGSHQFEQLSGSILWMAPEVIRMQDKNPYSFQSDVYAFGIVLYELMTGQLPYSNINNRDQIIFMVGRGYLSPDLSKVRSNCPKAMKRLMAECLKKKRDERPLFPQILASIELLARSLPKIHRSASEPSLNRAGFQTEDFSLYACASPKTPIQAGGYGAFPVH
Put plainly: BRAF HiBiT degradation assay, C-terminal HiBiT-tagged BRAF G466V overexpressed in HCT-116 BRAF−/− cells (clone 8), Nano-Glo HiBiT Lytic assay. Put shortly: (§1)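 Degradation was read by Nano-Glo HiBiT lytic luminescence, normalised to DMSO-treated tagged cells with wildtype HCT-116 as background. Test cells were lentiviral clones of HCT-116 BRAF−/− carrying HiBiT-tagged mutants in RPMI/10% FBS, given compound at 0.01 nM–1 μM in duplicate. Outputs are the curve-fitted concentration giving 50% degradation and the maximal observed degradation.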

Test [3] has as its target T3, BRAF G469A (Homo sapiens, UniProt P15056, G469A).
T3 construct: Horizon Discovery (HCT-116 BRAF−/− cells); host or cells: HCT-116 BRAF−/− cells, clone 34, lentiviral transduction
Briefly: BRAF HiBiT degradation assay, C-terminal HiBiT-tagged BRAF G469A overexpressed in HCT-116 BRAF−/− cells (clone 34), Nano-Glo HiBiT Lytic assay. The essentials:
as §1

Test [4] concerns the target T4, BRAF D594G (Homo sapiens, UniProt P15056, D594G).
T4 construct: Horizon Discovery (HCT-116 BRAF−/− cells); host or cells: HCT-116 BRAF−/− cells, clone 63, lentiviral transduction
Briefly: BRAF HiBiT degradation assay, C-terminal HiBiT-tagged BRAF D594G overexpressed in HCT-116 BRAF−/− cells (clone 63), Nano-Glo HiBiT Lytic assay. The essentials:
as §1

[5] abbreviates: A375 (BRAF V600E), DC50 at 50%: fitted conc. at Y=50.
The mark [6] stands for this setting: A375 (BRAF V600E), percentage protein degraded at maximal compound effect relative to DMSO.
[7] abbreviates: BRAF G466V, DC50 at 50%: fitted conc. at Y=50.
[8] abbreviates: HCT-116, BRAF G466V, percentage protein degraded at maximal compound effect relative to DMSO.
Setting [9] is: Class 2, BRAF G469A, DC50 at 50%: fitted conc. at Y=50.
Setting [10] is: HCT-116, Class 2, BRAF G469A, percentage protein degraded at maximal compound effect relative to DMSO.
Where [11] appears, read: BRAF D594G, DC50 at 50%: fitted conc. at Y=50.
The mark [12] stands for this setting: HCT-116, BRAF D594G, percentage protein degraded at maximal compound effect relative to DMSO.
[13] abbreviates: A375 (BRAF V600E, Class 1), DC50 at 50% degradation.
Where [14] appears, read: A375 (BRAF V600E, Class 1), observed Dmax, % protein degraded relative to DMSO control.
[15] abbreviates: BRAF G466V (Class 3), HCT-116 BRAF−/− cells, DC50 at 50% degradation.
The mark [16] stands for this setting: BRAF G466V (Class 3), HCT-116 BRAF−/− cells, observed Dmax relative to DMSO control.
Where [17] appears, read: BRAF G469A (Class 2), HCT-116 BRAF−/− cells, DC50 at 50% degradation.
Where [18] appears, read: BRAF G469A (Class 2), HCT-116 BRAF−/− cells, observed Dmax relative to DMSO control.
The mark [19] stands for this setting: BRAF D594G (Class 3), HCT-116 BRAF−/− cells, DC50 at 50% degradation.
Where [20] appears, read: BRAF D594G (Class 3), HCT-116 BRAF−/− cells, observed Dmax relative to DMSO control.

T3 sequence (P15056 whole entry G469A): as the sequence (P15056 whole entry G466V) above, with V466G, G469A counted along it
T1 sequence (P15056 whole entry V600E, the tested form may be a part): as the sequence (P15056 whole entry G466V) above, with V466G, V600E counted along it
T4 sequence (P15056 whole entry D594G): as the sequence (P15056 whole entry G466V) above, with V466G, D594G counted along it

Turning to `CCCS(=O)(=O)Nc1cccc(-c2nc(C3CCC4(CC3)CN(C(=O)CCCCCc3ccc5c(c3)C(=O)N(C3CCC(=O)NC3=O)C5)C4)sc2-c2ccnc(N)n2)c1F` (racemic) [Compound 234, Rac-N-{3-[5-(2-aminopyrimidin-4-yl)-2-[2-(6-{2-[(3R)-2,6-dioxopiperidin-3-yl]-3-oxo-2,3-dihydro-1H-isoindol-5-yl}hexanoyl)-2-azaspiro[3.5]nonan-7-yl]-1,3-thiazol-4-yl]-2-fluorophenyl}propane-1-sulfonamide], the DC50 was less than 10 nM in test [1] (setting [5]), 10 to 50 nM in test [2] (setting [7]), more than 500 nM in test [3] (setting [9]) and less than 10 nM in test [4] (setting [11]). In addition, the greatest degradation seen (Dmax) is more than 70% in test [1] (setting [6]), 30 to 70% in test [2] (setting [8]), less than 30% in test [3] (setting [10]) and 30 to 70% in test [4] (setting [12]).
On to `CCCS(=O)(=O)Nc1cccc(-c2nc(C3(C)CCN(C(=O)C4CCN(CC5CCN(c6ccc(C7CCC(=O)NC7=O)cc6)CC5)CC4)CC3)sc2-c2ccnc(N)n2)c1F` (racemic) [Compound 227, Rac-N-{3-[5-(2-aminopyrimidin-4-yl)-2-(1-{1-[(1-{4-[(3R)-2,6-dioxopiperidin-3-yl]phenyl}piperidin-4-yl)methyl]piperidine-4-carbonyl}-4-methylpiperidin-4-yl)-1,3-thiazol-4-yl]-2-fluorophenyl}propane-1-sulfonamide], for which the half-maximal degradation concentration (DC50) in test [1] (setting [5]) was less than 10 nM; in test [2] (setting [7]), more than 500 nM; in test [3] (setting [9]), more than 500 nM; in test [4] (setting [11]), more than 500 nM. Besides, the Dmax in test [1] (setting [6]) was more than 70%; in test [2] (setting [8]) it was 30 to 70%; in test [3] (setting [10]), 30 to 70%; in test [4] (setting [12]), 30 to 70%.
Turning to `O=C1CC[C@H](c2ccc(N3CCC(CN4CCN(c5ccc(-n6cc(-c7cc(Cl)cc(NS(=O)(=O)N8CCCC8)c7F)c(-c7ccncc7)n6)cc5)CC4)CC3)nc2)C(=O)N1` [Compound 285, N-{5-chloro-3-[1-(4-{4-[(1-{5-[(3R)-2,6-dioxopiperidin-3-yl]pyridin-2-yl}piperidin-4-yl)methyl]piperazin-1-yl}phenyl)-3-(pyridin-4-yl)-1H-pyrazol-4-yl]-2-fluorophenyl}pyrrolidine-1-sulfonamide], the DC50 in test [1] (setting [13]), in test [2] (setting [15]), in test [3] (setting [17]) and in test [4] (setting [19]) was less than 10 nM in each case. For the same molecule, the greatest degradation seen (Dmax) in test [1] (setting [14]) is more than 70%; in test [2] (setting [16]), more than 70%; in test [3] (setting [18]), more than 70%; in test [4] (setting [20]), 30 to 70%.
In the case of `C[C@@H]1CN(c2ccc(-n3cc(-c4cc(F)cc(NS(=O)(=O)N5CCCC5)c4F)c(-c4ccncc4)n3)c(F)c2)CCN1CC1CCN(c2ccc(C3CCC(=O)NC3=O)cn2)CC1` (mixture of isomers) [Compound 289, N-(3-(1-(4-((R)-4-((1-(5-((RS)-2,6-dioxopiperidin-3-yl)pyridin-2-yl)piperidin-4-yl)methyl)-3-methylpiperazin-1-yl)-2-fluorophenyl)-3-(pyridin-4-yl)-1H-pyrazol-4-yl)-2,5-difluorophenyl)pyrrolidine-1-sulfonamide], the DC50 was less than 10 nM in test [1] (setting [13]), less than 10 nM in test [2] (setting [15]), 10 to 50 nM in test [3] (setting [17]) and less than 10 nM in test [4] (setting [19]). Further, the maximal degradation (Dmax) in test [1] (setting [14]), in test [2] (setting [16]), in test [3] (setting [18]) and in test [4] (setting [20]) was more than 70% throughout.
As for `O=C1CCC(c2ccc(N3CCC(CN4CCN(c5ccc(-n6cc(-c7cc(F)cc(NS(=O)(=O)N8CCCC8)c7F)c(-c7ccncc7)n6)cc5)CC4)CC3)nc2)C(=O)N1` (racemic) [Compound 267, Rac-(R)—N-(3-(1-(4-(4-((1-(5-(2,6-dioxopiperidin-3-yl)pyridin-2-yl)piperidin-4-yl)methyl)piperazin-1-yl)phenyl)-3-(pyridin-4-yl)-1H-pyrazol-4-yl)-2,5-difluorophenyl)pyrrolidine-1-sulfonamide], the DC50 was less than 10 nM in test [1] (setting [13]), less than 10 nM in test [2] (setting [15]), 10 to 50 nM in test [3] (setting [17]) and less than 10 nM in test [4] (setting [19]). Also, the Dmax in test [1] (setting [14]), in test [2] (setting [16]), in test [3] (setting [18]) and in test [4] (setting [20]) was more than 70% in each case.
As for `O=C1CC[C@H](c2ccc(N3CCC(CN4CCN(c5ccc(-n6cc(-c7cc(Cl)cc(NS(=O)(=O)N8CCCC8)c7F)c(-c7ccncc7)n6)nc5)CC4)CC3)nc2)C(=O)N1` [Compound 290, N-{5-chloro-3-[1-(5-{4-[(1-{5-[(3R)-2,6-dioxopiperidin-3-yl]pyridin-2-yl}piperidin-4-yl)methyl]piperazin-1-yl}pyridin-2-yl)-3-(pyridin-4-yl)-1H-pyrazol-4-yl]-2-fluorophenyl}pyrrolidine-1-sulfonamide], the half-maximal degradation concentration (DC50) in test [1] (setting [13]), in test [2] (setting [15]), in test [3] (setting [17]) and in test [4] (setting [19]) was less than 10 nM in each case. The Dmax in test [1] (setting [14]), in test [2] (setting [16]), in test [3] (setting [18]) and in test [4] (setting [20]) was more than 70% in each case.
Turning to `O=C1CCN(c2ccc(N3CCC(CN4CCN(c5cnc(-n6cc(-c7cc(Cl)cc(NS(=O)(=O)N8CCCC8)c7F)c(-c7ccncc7)n6)nc5)CC4)CC3)cc2)C(=O)N1` [Compound 358, N-[5-chloro-3-(1-{5-[4-({1-[4-(2,4-dioxo-1,3-diazinan-1-yl)phenyl]piperidin-4-yl}methyl)piperazin-1-yl]pyrimidin-2-yl}-3-(pyridin-4-yl)-1H-pyrazol-4-yl)-2-fluorophenyl]pyrrolidine-1-sulfonamide], the DC50 is less than 10 nM in test [1] (setting [13]), 10 to 50 nM in test [2] (setting [15]), more than 500 nM in test [3] (setting [17]) and less than 10 nM in test [4] (setting [19]). Moreover, the Dmax was more than 70% in test [1] (setting [14]), 30 to 70% in test [2] (setting [16]), 30 to 70% in test [3] (setting [18]) and 30 to 70% in test [4] (setting [20]).
As for `O=C1CC[C@H](c2ccc(N3CCC(CN4CCN(c5ccc(-n6cc(-c7cc(F)cc(NS(=O)(=O)N8CC[C@@H](F)C8)c7F)c(-c7ccncc7)n6)nc5)CC4)CC3)cc2)C(=O)N1` [Compound 302, (3R)—N-{3-[1-(5-{4-[(1-{4-[(3R)-2,6-dioxopiperidin-3-yl]phenyl}piperidin-4-yl)methyl]piperazin-1-yl}pyridin-2-yl)-3-(pyridin-4-yl)-1H-pyrazol-4-yl]-2,5-difluorophenyl}-3-fluoropyrrolidine-1-sulfonamide], the DC50 in test [1] (setting [13]) was less than 10 nM; in test [2] (setting [15]), less than 10 nM; in test [3] (setting [17]), 10 to 50 nM; in test [4] (setting [19]), less than 10 nM. The Dmax in test [1] (setting [14]) was more than 70%; in test [2] (setting [16]), more than 70%; in test [3] (setting [18]), 30 to 70%; in test [4] (setting [20]), more than 70%.
In the case of `CCN(C)S(=O)(=O)Nc1cccc(-c2nc(C(C)(C)C)sc2-c2ccnc(Nc3ccc(N4CCN(CC5CC6(C5)CN(c5ccc(C7CCC(=O)NC7=O)cn5)C6)CC4)cn3)n2)c1F` (racemic) [Compound 30, Rac-(3R)-3-{6-[6-({4-[6-({4-[2-tert-butyl-4-(3-{[ethyl(methyl)sulfamoyl]amino}-2-fluorophenyl)-1,3-thiazol-5-yl]pyrimidin-2-yl}amino)pyridin-3-yl]piperazin-1-yl}methyl)-2-azaspiro[3.3]heptan-2-yl]pyridin-3-yl}piperidine-2,6-dione], the DC50 in test [1] (setting [5]) is less than 10 nM; in test [2] (setting [7]) it was 10 to 50 nM; in test [3] (setting [9]), 10 to 50 nM; in test [4] (setting [11]) it was less than 10 nM. Also, the Dmax in test [1] (setting [6]) was more than 70%; in test [2] (setting [8]), 30 to 70%; in test [3] (setting [10]), 30 to 70%; in test [4] (setting [12]), 30 to 70%.
